Experimental data as given in US6369070B1, “Methods for inhibiting mrp1” (Eli Lilly and Company, priority 1998, dated 2002).

Tests used:
[1] = biological target: T1, MRP1 (Homo sapiens, UniProt P33527); assay: Reversal of MRP1-mediated doxorubicin resistance in HL60/ADR cells; assay type: cell-based; conditions: HL60/ADR cells (printed EL60/ADR), oncolytic alone at the tested concentration
T1 construct: HL60/ADR and HL60/VCR are continuous cell lines, which were selected for doxorubicin and vincristine resistance respectively; endogenous in cells; host or cells: HL60/ADR (doxorubicin-selected HL60 human acute myeloblastic leukemia cells)
Description: (§1) Assay for Reversal of MRP1-Mediated Doxorubicin Resistance and MDR1-Mediated Vincristine Resistance: HL60/ADR and HL60/VCR are continuous cell lines, which were selected for doxorubicin and vincristine resistance respectively by culturing HL60, a human acute myeloblastic leukemia cell line, in increasing concentrations of doxorubicin or vincristine until a highly resistant variant was attained.
(§2) HL60/ADR and HL60/VCR cells were grown in RPMI 1640 (Gibco) containing […] (FBS) and 250 μg/ml GENTAMICIN™ (Sigma). Cells were harvested; washed twice with assay medium (same as culture media); counted; and diluted to 2×10^5 cells/ml in assay medium. Fifty microliters of cells were aliquoted into wells of a 96 well tissue culture plate. One column of each 96 well plate served as a negative control and received assay medium containing no cells.
(§3) Test compounds and reference compounds were dissolved in dimethyl sulfoxide (DMSO) at a concentration of 5 mM. Samples were diluted to 20 μM in assay medium and 25 μl of each test compound was added to 6 wells. Assay standards were run in quadruplicate. Twenty-five microliters of 0.4% DMSO was added to four wells as a solvent control.

[2] = biological target: T2, MDR1 (Homo sapiens, UniProt P08183); assay: Reversal of MDR1-mediated vincristine resistance in HL60/VCR cells; assay type: cell-based; conditions: oncolytic alone at the tested concentration
T2 construct: HL60/ADR and HL60/VCR are continuous cell lines, which were selected for doxorubicin and vincristine resistance respectively; endogenous in cells; host or cells: HL60/VCR (vincristine-selected HL60 human acute myeloblastic leukemia cells)
Description: as §1, §2, §3

T2 sequence (P08183 whole entry): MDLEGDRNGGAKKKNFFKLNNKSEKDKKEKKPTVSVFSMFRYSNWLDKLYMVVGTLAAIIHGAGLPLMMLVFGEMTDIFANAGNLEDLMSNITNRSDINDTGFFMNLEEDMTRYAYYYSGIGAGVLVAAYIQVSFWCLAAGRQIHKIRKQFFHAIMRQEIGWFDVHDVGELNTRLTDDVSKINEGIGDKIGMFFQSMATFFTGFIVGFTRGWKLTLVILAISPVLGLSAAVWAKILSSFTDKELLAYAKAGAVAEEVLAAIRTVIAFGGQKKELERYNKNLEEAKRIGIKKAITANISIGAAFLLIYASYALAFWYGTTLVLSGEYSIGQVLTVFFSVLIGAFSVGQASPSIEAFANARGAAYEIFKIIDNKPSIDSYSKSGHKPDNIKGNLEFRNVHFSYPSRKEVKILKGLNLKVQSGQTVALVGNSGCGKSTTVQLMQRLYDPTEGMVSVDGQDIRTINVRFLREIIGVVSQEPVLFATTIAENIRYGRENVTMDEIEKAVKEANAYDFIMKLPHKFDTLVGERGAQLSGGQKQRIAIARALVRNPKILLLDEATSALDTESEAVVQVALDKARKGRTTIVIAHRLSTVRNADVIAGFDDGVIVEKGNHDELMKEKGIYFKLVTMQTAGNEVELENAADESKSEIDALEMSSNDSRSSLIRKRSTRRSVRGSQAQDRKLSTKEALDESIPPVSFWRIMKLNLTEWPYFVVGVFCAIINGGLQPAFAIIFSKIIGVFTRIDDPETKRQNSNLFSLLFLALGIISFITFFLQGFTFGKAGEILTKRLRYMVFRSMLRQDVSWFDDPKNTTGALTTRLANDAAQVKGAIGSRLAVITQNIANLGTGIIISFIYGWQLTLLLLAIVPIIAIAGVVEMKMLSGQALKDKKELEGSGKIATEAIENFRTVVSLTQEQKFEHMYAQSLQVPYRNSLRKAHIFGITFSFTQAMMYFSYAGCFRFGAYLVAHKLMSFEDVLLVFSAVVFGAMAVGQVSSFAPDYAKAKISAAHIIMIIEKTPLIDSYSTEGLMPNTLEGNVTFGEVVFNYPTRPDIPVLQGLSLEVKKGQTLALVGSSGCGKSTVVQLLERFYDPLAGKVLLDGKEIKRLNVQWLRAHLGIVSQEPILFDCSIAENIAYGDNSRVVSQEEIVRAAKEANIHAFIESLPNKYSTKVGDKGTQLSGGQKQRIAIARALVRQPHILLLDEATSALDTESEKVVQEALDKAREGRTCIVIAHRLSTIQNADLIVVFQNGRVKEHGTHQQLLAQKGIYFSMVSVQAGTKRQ
T1 sequence (P33527 whole entry): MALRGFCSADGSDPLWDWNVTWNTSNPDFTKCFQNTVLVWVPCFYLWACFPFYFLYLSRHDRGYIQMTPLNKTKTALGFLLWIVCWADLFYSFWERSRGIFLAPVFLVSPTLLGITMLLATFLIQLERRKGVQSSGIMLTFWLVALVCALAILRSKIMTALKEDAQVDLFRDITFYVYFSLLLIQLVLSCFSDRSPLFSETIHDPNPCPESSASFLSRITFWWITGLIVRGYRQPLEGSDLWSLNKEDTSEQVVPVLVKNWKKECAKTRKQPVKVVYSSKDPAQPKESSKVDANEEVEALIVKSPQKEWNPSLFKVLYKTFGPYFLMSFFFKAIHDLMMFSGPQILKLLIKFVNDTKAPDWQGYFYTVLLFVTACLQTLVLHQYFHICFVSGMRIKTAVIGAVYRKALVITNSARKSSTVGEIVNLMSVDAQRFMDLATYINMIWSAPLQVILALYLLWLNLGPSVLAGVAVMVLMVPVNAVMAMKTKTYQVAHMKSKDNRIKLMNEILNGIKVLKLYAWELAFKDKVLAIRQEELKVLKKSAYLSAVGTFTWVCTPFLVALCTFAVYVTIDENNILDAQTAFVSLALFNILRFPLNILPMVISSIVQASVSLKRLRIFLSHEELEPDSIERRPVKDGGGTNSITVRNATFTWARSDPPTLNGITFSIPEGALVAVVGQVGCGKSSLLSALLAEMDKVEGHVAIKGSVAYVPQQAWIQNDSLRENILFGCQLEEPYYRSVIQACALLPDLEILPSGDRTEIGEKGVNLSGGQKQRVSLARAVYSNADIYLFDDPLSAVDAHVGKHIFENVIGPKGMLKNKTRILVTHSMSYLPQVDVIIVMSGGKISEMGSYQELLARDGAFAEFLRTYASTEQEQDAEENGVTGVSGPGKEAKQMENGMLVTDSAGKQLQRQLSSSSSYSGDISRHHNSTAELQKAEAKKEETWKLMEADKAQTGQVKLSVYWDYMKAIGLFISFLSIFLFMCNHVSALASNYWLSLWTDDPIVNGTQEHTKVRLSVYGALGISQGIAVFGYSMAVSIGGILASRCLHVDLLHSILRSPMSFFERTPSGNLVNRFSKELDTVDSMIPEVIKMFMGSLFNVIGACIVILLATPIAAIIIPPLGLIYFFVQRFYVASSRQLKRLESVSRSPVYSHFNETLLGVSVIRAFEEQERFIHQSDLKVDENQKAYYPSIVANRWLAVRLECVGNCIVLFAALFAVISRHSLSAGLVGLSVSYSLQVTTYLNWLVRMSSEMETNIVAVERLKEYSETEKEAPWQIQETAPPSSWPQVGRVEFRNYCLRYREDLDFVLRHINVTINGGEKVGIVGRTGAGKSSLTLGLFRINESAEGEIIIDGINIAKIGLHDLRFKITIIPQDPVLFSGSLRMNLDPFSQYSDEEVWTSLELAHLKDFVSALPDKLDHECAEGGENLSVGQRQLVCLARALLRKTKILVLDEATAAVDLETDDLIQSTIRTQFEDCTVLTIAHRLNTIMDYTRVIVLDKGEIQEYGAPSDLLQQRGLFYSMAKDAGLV

inhibition of cell growth by the oncolytic alone [1]: does not usually inhibit the growth
SMILES: COc1cccc2c1C(=O)c1c(O)c3c(c(O)c1C2=O)C[C@@](O)(C(=O)CO)C[C@@H]3O[C@H]1C[C@H](N)[C@H](O)[C@H](C)O1 [doxorubicin]
inhibition of cell growth by the oncolytic alone [2]: does not usually inhibit the growth
